How the values were obtained:
[1] = system: spontaneous hypertensive rats (OKAMOTO-AOKI strain); test: Blood pressure lowering in spontaneous hypertensive rats after oral administration (Test Example 2); format: in vivo; conditions: 2 hours after the dosing, direct method
Procedure: At a dose of 3 mg/kg or 10 mg/kg, the compound of the present invention was orally administered to spontaneous hypertensive rats (OKAMOTO-AOKI strain) with an average blood pressure of 150 mmHg or more. According to the direct method described by Nakano H. and Takayanagi K., Japanese Journal of Pharmacology, Vol. 25, 25 (1975), blood pressure and cardiac output were measured. Using the compound A used in the Test Example 1 as control, the same test was done.

[2] = system: aorta thoracica of a Wistar rat; test: Suppression of 20 mM K shrinkage (contraction) of rat aorta thoracica (Test Example 1); conditions: Klebs-Heneleit solution, 37° C., 20 mMK, read-out: Rat aorta IC30 20 mMK (dose of a drug suppressing 30% of 20 mMK shrinkage)
Procedure: The aorta thoracica of a Wistar rat was resected and then suspended in a Klebs-Heneleit solution kept at 37° C., according to the Weir and Weston's method (Br. J. Pharmac., 88, 121, (1986)), to determine the dose (IC30 20 mMK) of a drug suppressing 30% of 20 mMK shrinkage. As control, the same test done about the known compound A described in Bull. Soc. Chem. Fr., 1975, 829.

SMILES	Mean blood pressure: Blood pressure decrease ([1]; 10 mg/kg) [mmHg]	IC30 [2] [µM]	Mean blood pressure: Blood pressure decrease ([1]; 3 mg/kg) [mmHg]
CNC(=S)C(C)(C)C(=O)c1ccc(C#N)cc1 [Compound 224]	38.8	5	
CNC(=S)C(C)(C)C(=O)c1ccc(-n2ccnc2)cc1 [Compound 226]	35.9	13	
CNC(=S)C(C)(C)C(=O)c1cccc(-n2ccnc2)c1 [Compound 265]		0.62	76.5
CNC(=S)C(C)(C)C(=O)c1ccccc1-n1ccnc1 [Compound 302]	51.9		
CNC(=S)C1(C(=O)c2ccc(-n3ccnc3)cc2)CC1 [Compound 342]	31.2		
CNC(=S)C1(C(=O)c2ccc(-n3ccnc3)cc2)CCC1 [Compound 356, 4-(1-imidazolyl)-N-methyl-β-oxo-α,α-trimethylenebenzenepropanethioamide]	58.9	2.1	
CNC(=S)C1(C(=O)c2ccc(-n3ccnc3C)cc2)CCC1 [Compound 357]	78.4	0.18	
CNC(=S)C(C)(C)C(=O)c1ccccc1 [Compound A, N, α, α-trimethyl-β-oxobenzenepropanethioamide, reference compound]	14.1	13.6	

Reference: patent US5439927A, “Imidazoyl-β-oxo-β-benzenepropanethiomide derivative, compositions and method of use thereof” (Mitsubishi Kasei Corporation, priority 1991, dated 1995)
